Target: T1, mouse TMC6 protein (Mus musculus, UniProt Q7TN60, A788T)
T1 construct: expressed in transfected cells; host or cells: CHO-K1
T1 sequence (Q7TN60 1-810 A788T): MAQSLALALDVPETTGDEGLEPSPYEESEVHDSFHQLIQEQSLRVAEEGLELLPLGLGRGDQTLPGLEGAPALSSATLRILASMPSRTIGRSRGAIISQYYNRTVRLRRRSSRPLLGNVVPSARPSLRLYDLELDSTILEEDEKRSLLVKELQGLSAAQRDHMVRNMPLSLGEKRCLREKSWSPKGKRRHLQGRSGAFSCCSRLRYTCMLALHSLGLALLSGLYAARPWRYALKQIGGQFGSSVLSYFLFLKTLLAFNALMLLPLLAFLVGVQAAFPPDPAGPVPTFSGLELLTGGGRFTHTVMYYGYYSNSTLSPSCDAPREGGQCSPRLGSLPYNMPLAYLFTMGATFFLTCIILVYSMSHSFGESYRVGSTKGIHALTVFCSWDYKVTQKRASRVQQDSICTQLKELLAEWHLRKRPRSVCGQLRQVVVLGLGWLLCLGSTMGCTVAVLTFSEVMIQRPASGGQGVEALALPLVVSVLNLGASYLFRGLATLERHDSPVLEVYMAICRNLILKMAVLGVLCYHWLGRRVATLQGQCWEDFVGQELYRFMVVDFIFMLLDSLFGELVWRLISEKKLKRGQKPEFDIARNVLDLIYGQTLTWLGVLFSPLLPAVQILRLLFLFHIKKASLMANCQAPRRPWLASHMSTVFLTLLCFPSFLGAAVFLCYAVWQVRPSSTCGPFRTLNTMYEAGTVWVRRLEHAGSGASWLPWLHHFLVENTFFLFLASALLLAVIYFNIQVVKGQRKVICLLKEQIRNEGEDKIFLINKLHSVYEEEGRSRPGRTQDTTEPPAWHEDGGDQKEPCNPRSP
Assay: Calcium imaging (YC2.60 FRET) of CHO-K1 cells expressing the mouse TMC6 gene
Format: cell-based
Protocol: CHO-K1 cells were transfected with TMC6-pcDNA3.1 or pcDNA3.1 in combination with YC2.60-pcDNA, to prepare TMC6-expressing cells (cells expressing the mouse TMC6 gene and the YC2.60 gene) and control cells (cells expressing the YC2.60 gene). The prepared cells were stimulated, and activation of the cells was measured. The procedure was as follows.
That is, first, CHO-K1 cells (ATCC) were inoculated into a culture dish having a diameter of 60 mm while adjusting the number of the cells to obtain 60% confluence, and cultured for 8 hr. As the medium, 5 mL of Ham's F-12K (Kaighn's) (Life Technologies) containing 10% fetal bovine serum (Life Technologies) was used. A 15 μL aliquot of FuGENE 6 (Promega) was added to 235 μL of Opti-MEM (Thermo Fisher Scientific), and incubated for 5 min at a room temperature. Then, 0.625 μg of TMC6-pcDNA3.1 and 2.5 μg of YC2.60-pcDNA were further added thereto, and incubated for 15 min at a room temperature. Then, the whole of the resultant mixture was dropped into the culture broth of the CHO-K1 cells, and the culture broth was mildly stirred. Then, the cells were further cultured for 18 hr under a condition of 5% CO2 at 37° C., to obtain the TMC6-expressing cells. Similarly, the control cells were obtained through transfection using pcDNA3.1 instead of TMC6-pcDNA3.1.
After the cultivation, the culture broth was removed. A low-concentration NaCl solution (27 mM NaCl, 1 mM KCl, 0.4 mM CaCl2, 0.2 mM MgCl2, 2 mM Hepes (pH7.3), 1 mM NaHCO3, 2 mM glucose, 2 mM sodium pyruvate, and 112 mM NMDG-Cl) was added to the culture dish, incubation was carried out statically for 5 min, and then, stimulation and observation of cells were started. First, the low-concentration NaCl solution was perfused for approximately 80 sec, to provide a ground state. Then, a high-concentration NaCl solution (135 mM NaCl, 1 mM KCl, 0.4 mM CaCl2, 0.2 mM MgCl2, 2 mM Hepes (pH7.3), 1 mM NaHCO3, 2 mM glucose, and 2 mM sodium pyruvate) was perfused instead of the low-concentration NaCl solution for approximately 60 sec, to stimulate the cells. […]

[Cl-].[Na+] [NaCl, sodium chloride]
relative FRET value (YFP/CFP) of the ROI-1 cell (one typical TMC6-expressing cell, stimulation with high-concentration NaCl solution (135 mM NaCl), FIG. 13C): approximately 1.2
change of YFP/CFP value (intracellular calcium concentration, cell activation) (stimulation with high-concentration NaCl solution (135 mM NaCl) for approx. 60 sec after 27 mM NaCl ground state): increase
